Measured values published in patent US11096952B2, “Chemicals and methods to prevent and treat TGF-beta mediated activation of fibroblasts to reduce and treat cancer and fibrosis” (Board of Supervisors of Louisiana State University and …, priority 2016, dated 2021).

Legend:
[1] = test system: TGF-β-induced fibronectin expression; assay: Western blot of TGF-β-induced fibronectin expression in WPMY-1 fibroblasts; type: cell-based, human; conditions: for TGF-β-induced fibronectin expression, intracellular Ca2+ modulators (western blot): WPMY-1, 2.5-10 μM, 5 ng/ml TGF-β, 24 hours
Experimental: (§1) Inhibitors of CAF Differentiation. A. WPMY-1 cells were plated into each well of 4-chamber slice (for IF), or (C) in a 24 well plate (for western blot analysis). After cell attachment, vehicle or 5 ng/ml TGF-β was added into each well and incubated for 24 h in a 37° C. in a humidified incubator containing 5% CO2. For fluorescence detection (A), cells were fixed and stained with antibody detecting fibronectin and/or stained with DAPI to detect the nuclei. Protein was extracted with boiling Lamaelli buffer for WB (C) and blots were probed with anti-fibronectin or anti-tubulin antibodies. Fibronectin fluorescence (D and E) was measured in the presence or absence of TGF-β in 8 well replicates as follows. Cells were conditioned in serum-free DMEM for 48 hr prior to the addition of TGF-β. Images were acquired using a Cellomics platform with a mask shown in the schematic of (B). The mean of the total fluorescence intensity in each well was calculated from 300 cells per image field and up to 15 fields from each well for fibronectin. The fold change in fibronectin expression per acquired image (nuclei) is shown (Mean+/−SD).
Panel A1 is the control, Panel A2 is the TGF-β treated wells and Panel A3 is TGF-β plus PsA at 5 micromolar. Images were captured using the Cellomics imaging system.
Representative blots are shown with two exposures of fibronectin to account for strong signal intensity. n=3.
FIGS. 9A-9B: Increases in intracellular Ca^2+ prevent TGF-β-induced fibronectin expression. (A) WPMY-1 fibroblasts were treated with 2.5 μM thapsigargin±5 ng/ml TGF-β for 24 hours. (B) WPMY-1 fibroblasts were treated with 2.5-10 μM 3′,4′-dichlorobenzamil hydrochloride (DCB)±5 ng/ml TGF-β for 24 hours. Cell lysates were analyzed by western blot for fibronectin expression.
Because of the observed low nanomolar effective concentration of the cardiac glycosides, the inventors hypothesized that the cardiac glycosides may be acting by binding to their high affinity target, the Na^+/K^+ ATPase, and that action through the ATPase is the mechanism by which the cardiac glycosides are able to block TGF-β-induced fibronectin expression. It is well documented that inhibition of the Na^+/K^+ ATPase by digoxin leads to increases in intracellular Ca^2+ by preventing Ca^2+ efflux through the Na^+/Ca^2+ exchanger. In order to determine if increased intracellular Ca^2+ is sufficient to prevent TGF-β-induced fibronectin expression, the inventors utilized two compounds that increase intracellular Ca^2+ concentrations. 3′,4′-dichlorobenzamil hydrochloride (DCB) inhibits the Na^+/Ca^2+ exchanger, Na^+ transport, and sarcoplasmic reticulum Ca^2+ release channels. Thapsigargin inhibits the endoplasmic reticulum Ca^+ ATPase, preventing storage of Ca^2+ in the endoplasmic reticulurn, causing an accumulation in the cytoplasm. Cells were treated with 2.5-10 μM of DCB or thapsigargin±TGF-β for 24 hours.

[2] = test system: TGF-β-induced fibronectin; assay: High content imaging (Cellomics) screen for inhibitors of fibronectin induction by TGF-beta in WPMY-1 cells; type: cell-based, human
Experimental: as §1, with “The fold change in fibronectin expression per acquired image (nuclei) is shown (Mean+/−SD).” left out
FIGS. 4A-4H: Dose response for identified hits. As shown in the four panels of FIG. 4A, fibronectin fluorescence was measured from images acquired following a Cellomics scan using WPMY-1 cells with concentrations of hits over a range of 0-100 uM. […] Results were expressed as percent inhibition caused by cells treated with TGF-β alone and without testing compound, which was considered as 100%. […]
FIGS. 14-15 show Table I—Prestwick Library and Table II—NIH Library chemicals respectively. […] A “hit” was defined as a compound causing at least 50% reduction of “Mean_RingTotal Intensity”, which is the fluorescence intensity within the defined ring (see FIG. 2) surrounding nucleus of each cell, summed for 300 cells per image and 15 fields per image. The solvent, 0.1% Dimethyl Sulfoxide (DMSO), with and without TGF-beta served as an internal control on each plate to normalize day-to-day and plate-to-plate variation with DMSO alone as low fluorescence (0%) and TGF-β treated as maximal fluorescence (100%). […]

WPMY-1 cells = assay: Viability / metabolic activity assay on WPMY-1 cells; conditions: WPMY-1, compound at its IC50, up to 48 hours, 1% FBS DMEM, vs DMSO control
Experimental: Metabolically viable cells (indicated by bar; left y-axis) are indicated by fluorescent intensity (560/590 nm).
Cardiac glycosides have been shown previously to inhibit cell growth in a variety of cell types, in order to determine whether cardiac glycosides inhibited TGE-β-induced fibronectin expression by affecting metabolic activity, viability assays were performed on WPMY-1 cells over 48 hours in 1% FBS DMEM.

[3] = test system: activated fibroblast phenotype (fibronectin, YAP, TAZ, smooth muscle actin); assay: Western blot of activated fibroblast markers (FN, YAP, TAZ, SMA) in MRC-5 lung fibroblasts induced by growth factors; type: cell-based, human
Experimental: FIG. 10C: MRC-5 lung fibroblast cells were serum-starved 24 hours then treated with 10 ng/mL TGF-β in serum-free media for 24 hours with or without verteporfin at the indicated concentration. FN: fibronectin, YAP: yes-activated protein, TAZ: transcriptional coactivator with PDZ-binding motif, and SMA(ACTA2): smooth muscle actin. Representative western blot is shown (n=3).
FIG. […] T.F.8: combination TGF, FGF, IL8. […] FN: fibronectin, YAP: yes-activated protein, TAZ: transcriptional coactivator with PDZ-binding motif, and SMA(ACTA2): smooth muscle actin. Representative western blot is shown (n=2).

[4] = test system: activated fibroblast phenotype; conditions: MRC-5 pre-activated with 10 ng/mL TGF-β 24 hours, then 24 hours treatment
Experimental: (§2) FIGS. 13A-13C: MRC-5 lung fibroblast cells were serum-starved 24 hours then treated with or without 10 ng/mL TGF-β for 24 hours (T-24 hr). […] FN: fibronectin, YAP: yes-activated protein, TAZ: transcriptional coactivator with PDZ-binding motif, and SMA(ACTA2): smooth muscle actin. Representative western blot is shown (n=2). […] Cells were fixed in −20C methanol for 15 minutes and immunolabeled for fibronectin. Cellomics arrayscan imaging was performed and staining intensity was quantified and analyzed for fibronectin expression on a per cell basis.
(§3) Turning now to FIGS. 13A-13E, in a clinical setting, it would be advantageous for the efficacy of the therapeutics that the activated fibroblasts be reversed to a quiescent state upon treatment. […] To test the combinations, the inventors obtained quantitative analysis of fibronectin staining in fibroblasts upon treatment with TGF-β in the presence or absence of drug combinations.

[5] = test system: TGF-β-induced fibronectin; conditions: MRC-5, 10 ng/mL TGF-β, 24 hours, low concentrations alone or in combination
Experimental: as §2, §3

CC(=O)OCOC(=O)CN(CC(=O)OCOC(C)=O)c1ccccc1OCCOc1ccccc1N(CC(=O)OCOC(C)=O)CC(=O)OCOC(C)=O [BAPTA-AM, Glycine, N,N′-[1,2-ethanediylbis(oxy-2,1-phenylene)]bis[N-[2-[(acetyloxy)methoxy]-2-oxoethyl]]-, bis[(acetyloxy)methyl] ester]
TGF-β-induced fibronectin expression, intracellular Ca2+ modulators (western blot) [1]: no effect on TGF-β-induced fibronectin expression

Cl.NC(=NCc1ccc(Cl)c(Cl)c1)NC(=O)c1nc(Cl)c(N)nc1N [DCB, 3′,4′-dichlorobenzamil hydrochloride]
TGF-β-induced fibronectin expression, intracellular Ca2+ modulators (western blot) [1]: able to prevent TGF-β-induced fibronectin expression in a dose-dependent manner

C[C@@H]1O[C@@H](O[C@@H]2C=C3CC[C@@H]4[C@H](CC[C@]5(C)[C@@H](c6ccc(=O)oc6)CC[C@]45O)[C@@]3(C)CC2)[C@H](O)[C@H](O)[C@H]1O [Proscillaridin A]
IC50 / potency for inhibition of TGF-β-induced fibronectin (dose response) ([2]; WPMY-1, 0-100 uM, TGF-β 24 hour): lowest IC50
inhibition of fibronectin induction, Cellomics based image analysis ([2]; WPMY-1, TGF-β plus PsA at 5 micromolar): potent inhibitor of fibronectin induction
cell viability / metabolic activity (WPMY-1 cells): toxic to cells
cell viability / metabolic activity (WPMY-1 cells; listed as proscillaridin A): decreased metabolic activity
inhibition of fibronectin induction, western blot ([1]; WPMY-1, TGF-β, dose range of PsA): inhibits induction of fibronectin even a low nanomolar concentrations

CC(=O)O[C@H]1C[C@H](O[C@H]2[C@@H](O)C[C@H](O[C@H]3[C@@H](O)C[C@H](O[C@H]4CC[C@@]5(C)[C@H](CC[C@@H]6[C@@H]5C[C@@H](O)[C@]5(C)[C@@H](C7=CC(=O)OC7)CC[C@]65O)C4)O[C@@H]3C)O[C@@H]2C)O[C@H](C)[C@H]1O[C@@H]1O[C@H](CO)[C@@H](O)[C@H](O)[C@H]1O [lanatoside C]
cell viability / metabolic activity (WPMY-1 cells): no effect on cell viability

COC(=O)c1ccc2c(c1)NC(=O)/C2=C(\Nc1ccc(N(C)C(=O)CN2CCN(C)CC2)cc1)c1ccccc1 [nintedanib]
FGF signaling (TAZ upregulation) ([3]; MRC-5, 10 ng/mL FGF, nintedanib 200 nM, 24 hours): blocks FGF signaling
induction of activated fibroblast markers by TGF-β ([3]; MRC-5, 10 ng/mL TGF-β, nintedanib 200 nM, 24 hours): does not bock induction by TGF-β

C[C@@H]1O[C@@H](O[C@H]2C[C@@H](O)[C@]3(CO)[C@H]4[C@H](O)C[C@]5(C)[C@@H](C6=CC(=O)OC6)CC[C@]5(O)[C@@H]4CC[C@]3(O)C2)[C@H](O)[C@H](O)[C@H]1O [ouabain]
cell viability / metabolic activity (WPMY-1 cells): no effect on cell viability

Cc1cc(/C=C/c2ccc3cc(N(C)C)ccc3[n+]2C)c(C)n1-c1ccccc1 [pyrvinium]
reversal of activated fibroblast phenotype (fibronectin, TAZ, smooth muscle actin) [4]: revert fibroblasts to the quiescent state
fibronectin staining intensity per cell (Cellomics arrayscan) [5]: the levels of fibronectin are reduced
activated fibroblast phenotype induced by TGF-β and FGF (fibronectin, YAP, TAZ, smooth muscle actin) ([3]; MRC-5, 10 ng/mL TGF-β and 20 ng/ml FGF, 24 hours): able to prevent the activated fibroblast phenotype
activated fibroblast phenotype upon TGF-β and FGF, compared with nintedanib ([3]; MRC-5, 10 ng/mL TGF-β and 20 ng/ml FGF, 24 hours, nintedanib 200 nM): able to block the activated fibroblast phenotype better than nintedanib
fibroblast activation from a combination of growth factors (TGF, FGF, IL8) ([3]; MRC-5, 10 ng/mL TGF-β, 20 ng/mL FGF, 20 ng/mL IL-8, digoxin 250 nM, pyrvinium 500 nM vs pirfenidone 500 μm, nintedanib 250 nM): able to block fibroblast activation from a combination of growth factors better than pirfenidone or nintedanib

C/C=C(/C)C(=O)O[C@H]1C(C)=C2[C@H]([C@@H]1OC(=O)CCCCCCC)[C@@](C)(OC(C)=O)C[C@H](OC(=O)CCC)[C@@]1(O)[C@H]2OC(=O)[C@@]1(C)O [thapsigargin]
TGF-β-induced fibronectin expression, intracellular Ca2+ modulators (western blot) [1]: able to prevent TGF-β-induced fibronectin expression in a dose-dependent manner

verteporfin
TAZ levels ([3]; MRC-5, 10 ng/mL TGF-β, 24 hours): not reduced
induction of fibronectin, YAP, TAZ, smooth muscle actin by TGF-β ([3]; MRC-5, 10 ng/mL TGF-β, serum-free, 24 hours, dose escalation): represses TGF-β induced fibronectin and smooth muscle actin expression
